Reference: ChEMBL document CHEMBL5715954, “Silencing c-Myc translation as a therapeutic strategy through targeting PI3Kδ and CK1ε in hematological malignancies” (Blood, 2017)

Assays:
Design in all cases: scale not given: the % may be the effect or the level left
[1] = target: T1, Testis-specific serine/threonine-protein kinase 3 (Homo sapiens) (UniProt Q96PN8); test: Inhibition of human TSSK3 assessed as enzyme activity at 1 uM using KKKVSRSGLYRSPSMPENLNRPR as substrate preincubated for 20 mins followed by [gamma-33P]-ATP addition and measured after 120 mins by radiometric Hot-SpotSM Kinase assay relative to control
T1 sequence (whole entry): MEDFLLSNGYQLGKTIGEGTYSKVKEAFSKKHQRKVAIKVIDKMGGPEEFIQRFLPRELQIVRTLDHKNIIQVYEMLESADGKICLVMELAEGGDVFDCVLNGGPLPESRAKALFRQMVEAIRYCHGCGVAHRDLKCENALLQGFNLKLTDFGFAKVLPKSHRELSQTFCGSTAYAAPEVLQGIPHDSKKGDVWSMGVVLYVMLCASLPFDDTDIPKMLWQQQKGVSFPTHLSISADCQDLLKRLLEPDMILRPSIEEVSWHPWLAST

[2] = target: T2, Mitogen-activated protein kinase kinase kinase kinase 2 (Homo sapiens) (UniProt Q12851); test: Inhibition of human GCK assessed as enzyme activity at 1 uM using myelin basic protein as substrate preincubated for 20 mins followed by [gamma-33P]-ATP addition and measured after 120 mins by radiometric Hot-SpotSM Kinase assay relative to control
T2 sequence (whole entry): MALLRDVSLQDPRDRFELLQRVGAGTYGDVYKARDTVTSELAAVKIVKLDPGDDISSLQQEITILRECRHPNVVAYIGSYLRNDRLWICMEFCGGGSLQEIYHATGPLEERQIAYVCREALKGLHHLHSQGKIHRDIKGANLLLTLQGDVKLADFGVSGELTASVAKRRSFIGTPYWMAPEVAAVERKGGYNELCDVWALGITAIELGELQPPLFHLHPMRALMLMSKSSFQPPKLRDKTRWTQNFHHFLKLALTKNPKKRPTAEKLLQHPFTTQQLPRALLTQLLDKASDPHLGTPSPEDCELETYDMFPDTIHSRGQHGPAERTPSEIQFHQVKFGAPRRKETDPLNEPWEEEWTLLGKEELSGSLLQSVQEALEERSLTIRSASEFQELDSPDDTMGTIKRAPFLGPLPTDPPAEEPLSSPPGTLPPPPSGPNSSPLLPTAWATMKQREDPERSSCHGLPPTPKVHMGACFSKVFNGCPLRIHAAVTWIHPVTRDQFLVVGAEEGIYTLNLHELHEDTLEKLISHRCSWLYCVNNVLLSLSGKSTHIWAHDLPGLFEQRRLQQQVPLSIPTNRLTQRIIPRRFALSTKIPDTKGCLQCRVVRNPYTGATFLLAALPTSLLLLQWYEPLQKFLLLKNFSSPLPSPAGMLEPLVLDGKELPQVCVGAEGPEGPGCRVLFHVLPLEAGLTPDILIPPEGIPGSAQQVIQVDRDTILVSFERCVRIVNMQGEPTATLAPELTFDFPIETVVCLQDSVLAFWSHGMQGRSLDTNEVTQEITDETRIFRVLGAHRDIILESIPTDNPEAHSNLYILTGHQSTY

[3] = target: Testis-specific serine/threonine-protein kinase 6 (Homo sapiens) (UniProt Q9BXA6); test: Inhibition of human SSTK assessed as enzyme activity at 1 uM using myelin basic protein as substrate preincubated for 20 mins followed by [gamma-33P]-ATP addition and measured after 120 mins by radiometric Hot-SpotSM Kinase assay relative to control
[4] = target: T3, Tyrosine-protein kinase JAK3 (Homo sapiens) (UniProt P52333); test: Inhibition of human JAK3 assessed as enzyme activity at 1 uM using GGEEEEYFELVKKKK as substrate preincubated for 20 mins followed by [gamma-33P]-ATP addition and measured after 120 mins by radiometric Hot-SpotSM Kinase assay relative to control
T3 sequence (whole entry): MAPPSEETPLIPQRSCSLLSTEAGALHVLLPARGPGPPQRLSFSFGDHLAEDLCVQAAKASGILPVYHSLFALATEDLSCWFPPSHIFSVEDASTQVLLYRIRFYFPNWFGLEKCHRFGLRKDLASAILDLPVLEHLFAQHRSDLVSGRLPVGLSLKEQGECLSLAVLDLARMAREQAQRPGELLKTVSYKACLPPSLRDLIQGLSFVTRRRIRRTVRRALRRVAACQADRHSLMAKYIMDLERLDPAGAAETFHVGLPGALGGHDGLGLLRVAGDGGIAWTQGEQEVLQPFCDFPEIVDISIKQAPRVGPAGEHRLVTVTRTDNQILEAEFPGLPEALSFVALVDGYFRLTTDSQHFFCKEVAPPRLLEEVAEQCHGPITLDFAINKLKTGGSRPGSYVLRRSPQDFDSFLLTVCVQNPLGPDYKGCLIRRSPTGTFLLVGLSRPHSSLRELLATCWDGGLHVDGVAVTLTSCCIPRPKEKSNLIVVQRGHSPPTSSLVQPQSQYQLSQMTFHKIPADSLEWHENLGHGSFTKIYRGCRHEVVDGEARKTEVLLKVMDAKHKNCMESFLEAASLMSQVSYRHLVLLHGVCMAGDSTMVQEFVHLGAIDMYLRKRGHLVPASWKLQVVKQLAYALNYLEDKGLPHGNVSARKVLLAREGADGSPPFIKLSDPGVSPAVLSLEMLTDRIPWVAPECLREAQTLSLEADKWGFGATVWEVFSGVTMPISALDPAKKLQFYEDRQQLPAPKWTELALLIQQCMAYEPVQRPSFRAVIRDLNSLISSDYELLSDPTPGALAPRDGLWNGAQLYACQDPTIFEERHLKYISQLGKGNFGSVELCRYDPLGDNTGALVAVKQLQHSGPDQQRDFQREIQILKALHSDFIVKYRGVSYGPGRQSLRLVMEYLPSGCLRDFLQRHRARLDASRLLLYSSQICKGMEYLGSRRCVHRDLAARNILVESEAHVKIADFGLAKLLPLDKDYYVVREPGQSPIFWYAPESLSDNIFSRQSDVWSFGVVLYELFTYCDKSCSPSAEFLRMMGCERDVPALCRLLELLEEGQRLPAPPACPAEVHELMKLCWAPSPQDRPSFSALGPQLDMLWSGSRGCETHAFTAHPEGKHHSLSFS

Sequence of Testis-specific serine/threonine-protein kinase 6 (Homo sapiens) (Q9BXA6 whole entry): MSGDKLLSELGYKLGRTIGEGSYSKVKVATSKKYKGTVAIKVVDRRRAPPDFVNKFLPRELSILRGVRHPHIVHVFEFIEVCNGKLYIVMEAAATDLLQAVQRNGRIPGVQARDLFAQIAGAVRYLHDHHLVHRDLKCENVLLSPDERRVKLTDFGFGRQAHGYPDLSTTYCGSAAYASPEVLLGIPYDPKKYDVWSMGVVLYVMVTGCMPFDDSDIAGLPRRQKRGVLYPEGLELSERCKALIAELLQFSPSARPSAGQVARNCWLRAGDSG

CC[C@H](Nc1ncnc2[nH]cnc12)c1nc2cccc(F)c2c(=O)n1-c1ccccc1
Activity [1]: 102%
Activity [2]: 97%
Activity [3]: 105%
Activity [4]: 94.3%

C[C@H](Nc1ncnc2nc[nH]c12)c1cc2cccc(Cl)c2c(=O)n1-c1ccccc1
Activity [1]: 109%
Activity [2]: 96.7%
Activity [3]: 103%
Activity [4]: 95.2%

CC(C)Oc1ccc(-c2nn([C@@H](C)c3oc4ccc(F)cc4c(=O)c3-c3cccc(F)c3)c3ncnc(N)c23)cc1F [UMBRALISIB]
Activity [1]: 107%
Activity [2]: 98.6%
Activity [3]: 102%
Activity [4]: 91.2%
